Data on 24 compounds can be found in patent publication US9562036B2, “Fluoromethyl-substituted pyrrole carboxamides as CaV2.2 calcium channel blockers” (GRÜNENTHAL GMBH, priority 2013, dated 2017).

This experiment deals with T1, Human CaV2.2 channels (Homo sapiens, UniProt Q00975).
T1 construct: expressed in transfected cells; also stably expressing Kir2.3)
In words: Fluorescent assay for CaV2.2 channels using potassium depolarization to induce channel opening (FLIPR, Fluo 4). In kind it is cell-based. As to conditions: 3 μM test compound; 30 mM KCl alternative assay buffer (inactivated channel state); HEK293 cells; read-out: %-Inhib (CaV2.2) @3 μM @30 mM KCl. The text has this: In the process, the Ca^2+ influx is quantified in the FLIPR assay with the aid of a Ca^2+-sensitive dye (type Fluo-4, Molecular Probes Europe BV, Leiden, the Netherlands) in a fluorescent imaging plate reader (FLIPR 3, Molecular Devices, Sunnyvale, USA), as described hereinafter.
2. Assay Descriptions and Biological Data: 2.1 Fluorescent Assay for CaV2.2 Channels Using Potassium Depolarization to Induce Channel Opening
Human CaV2.2 channels were stably expressed in HEK293 cells together with alpha2-delta and beta subunits of voltage gated calcium channels. In addition, an inwardly rectifying potassium channel (Kir2.3) was stably expressed in these cells to augment control of the cell membrane potential by the concentration of extracellular potassium ions. Raise of the extracellular potassium concentration leads to depolarization of the membrane potential and thus regulates the voltage dependent state of CaV2.2 channels. For preparation, cells were seeded in black poly-D-lysine coated 96-well plates (Becton Dickinson, Biocoat 4640) in 100 μL medium [500 mL DMEM/F-12 plus Glutamax (Invitrogen 31331-093) plus 5.5 mL MEM NEAA 100× (Invitrogen 11140-035) plus 50 mL FBS decomplemented (Invitrogen 10270-106) plus 200 μg/mL Geneticin (Invitrogen 10131-027) plus 50 μg/mL Hygromycin B (Invitrogen 10687-010) plus 2 μg/mL Blasticidin (anti-bl5b Invivo-Gen) plus 0.2 μg/mL Puromycin (A 11138-03)] at a cell density of 30.000 cells per well. Plates were incubated at 37° C. (5% CO2) for 20 to 23 h. On the day of experiment medium was discarded and cells were loaded with Fluo 4 by addition of 100 μL of basic assay buffer (10 mM HEPES, 1 mM KCl, 149 mM NaCl, 0.8 mM CaC2, 1.7 mM MgCl2, 10 mM Glucose, 0.1% BSA. pH 7.4) containing 2 μM Fluo 4 (Molecular Probes; F-14201), 0.01% pluronic acid (Molecular Probes; P-6866) and 2.5 mM probenecid (Molecular Probes; P36400). Cells were incubated in the dark at 25° C. for 60 min. Then dye containing buffer was discarded and 100 μL basic (1 mM KCl) or alternative (30 mM KCl) assay buffer was added. The alternative assay buffer contained altered concentrations of KCl (30 mM) and NaCl (120 mM) and was used in order to promote the inactivated channel state. After that 25 μL of basic or alternative assay buffer with or without test compound were added and cells were incubated again in the dark at 25° C. for 15 min. Fluorescence intensity was measured on a FLIPR 3 instrument (Molecular Devices Corp., Sunnyvale, Calif.) with excitation at 480 nm and emission at 535 nm. After continuously reading fluorescence for 30 sec, 50 μL of basic assay buffer containing 210 mM KCl (NaCl omitted) were added for depolarization. Peak fluorescent signal intensity was determined and the amplitude of the peak signal, normalized to base line, was used to measure channel inhibition by test compounds.

T1 sequence (Q00975 whole entry): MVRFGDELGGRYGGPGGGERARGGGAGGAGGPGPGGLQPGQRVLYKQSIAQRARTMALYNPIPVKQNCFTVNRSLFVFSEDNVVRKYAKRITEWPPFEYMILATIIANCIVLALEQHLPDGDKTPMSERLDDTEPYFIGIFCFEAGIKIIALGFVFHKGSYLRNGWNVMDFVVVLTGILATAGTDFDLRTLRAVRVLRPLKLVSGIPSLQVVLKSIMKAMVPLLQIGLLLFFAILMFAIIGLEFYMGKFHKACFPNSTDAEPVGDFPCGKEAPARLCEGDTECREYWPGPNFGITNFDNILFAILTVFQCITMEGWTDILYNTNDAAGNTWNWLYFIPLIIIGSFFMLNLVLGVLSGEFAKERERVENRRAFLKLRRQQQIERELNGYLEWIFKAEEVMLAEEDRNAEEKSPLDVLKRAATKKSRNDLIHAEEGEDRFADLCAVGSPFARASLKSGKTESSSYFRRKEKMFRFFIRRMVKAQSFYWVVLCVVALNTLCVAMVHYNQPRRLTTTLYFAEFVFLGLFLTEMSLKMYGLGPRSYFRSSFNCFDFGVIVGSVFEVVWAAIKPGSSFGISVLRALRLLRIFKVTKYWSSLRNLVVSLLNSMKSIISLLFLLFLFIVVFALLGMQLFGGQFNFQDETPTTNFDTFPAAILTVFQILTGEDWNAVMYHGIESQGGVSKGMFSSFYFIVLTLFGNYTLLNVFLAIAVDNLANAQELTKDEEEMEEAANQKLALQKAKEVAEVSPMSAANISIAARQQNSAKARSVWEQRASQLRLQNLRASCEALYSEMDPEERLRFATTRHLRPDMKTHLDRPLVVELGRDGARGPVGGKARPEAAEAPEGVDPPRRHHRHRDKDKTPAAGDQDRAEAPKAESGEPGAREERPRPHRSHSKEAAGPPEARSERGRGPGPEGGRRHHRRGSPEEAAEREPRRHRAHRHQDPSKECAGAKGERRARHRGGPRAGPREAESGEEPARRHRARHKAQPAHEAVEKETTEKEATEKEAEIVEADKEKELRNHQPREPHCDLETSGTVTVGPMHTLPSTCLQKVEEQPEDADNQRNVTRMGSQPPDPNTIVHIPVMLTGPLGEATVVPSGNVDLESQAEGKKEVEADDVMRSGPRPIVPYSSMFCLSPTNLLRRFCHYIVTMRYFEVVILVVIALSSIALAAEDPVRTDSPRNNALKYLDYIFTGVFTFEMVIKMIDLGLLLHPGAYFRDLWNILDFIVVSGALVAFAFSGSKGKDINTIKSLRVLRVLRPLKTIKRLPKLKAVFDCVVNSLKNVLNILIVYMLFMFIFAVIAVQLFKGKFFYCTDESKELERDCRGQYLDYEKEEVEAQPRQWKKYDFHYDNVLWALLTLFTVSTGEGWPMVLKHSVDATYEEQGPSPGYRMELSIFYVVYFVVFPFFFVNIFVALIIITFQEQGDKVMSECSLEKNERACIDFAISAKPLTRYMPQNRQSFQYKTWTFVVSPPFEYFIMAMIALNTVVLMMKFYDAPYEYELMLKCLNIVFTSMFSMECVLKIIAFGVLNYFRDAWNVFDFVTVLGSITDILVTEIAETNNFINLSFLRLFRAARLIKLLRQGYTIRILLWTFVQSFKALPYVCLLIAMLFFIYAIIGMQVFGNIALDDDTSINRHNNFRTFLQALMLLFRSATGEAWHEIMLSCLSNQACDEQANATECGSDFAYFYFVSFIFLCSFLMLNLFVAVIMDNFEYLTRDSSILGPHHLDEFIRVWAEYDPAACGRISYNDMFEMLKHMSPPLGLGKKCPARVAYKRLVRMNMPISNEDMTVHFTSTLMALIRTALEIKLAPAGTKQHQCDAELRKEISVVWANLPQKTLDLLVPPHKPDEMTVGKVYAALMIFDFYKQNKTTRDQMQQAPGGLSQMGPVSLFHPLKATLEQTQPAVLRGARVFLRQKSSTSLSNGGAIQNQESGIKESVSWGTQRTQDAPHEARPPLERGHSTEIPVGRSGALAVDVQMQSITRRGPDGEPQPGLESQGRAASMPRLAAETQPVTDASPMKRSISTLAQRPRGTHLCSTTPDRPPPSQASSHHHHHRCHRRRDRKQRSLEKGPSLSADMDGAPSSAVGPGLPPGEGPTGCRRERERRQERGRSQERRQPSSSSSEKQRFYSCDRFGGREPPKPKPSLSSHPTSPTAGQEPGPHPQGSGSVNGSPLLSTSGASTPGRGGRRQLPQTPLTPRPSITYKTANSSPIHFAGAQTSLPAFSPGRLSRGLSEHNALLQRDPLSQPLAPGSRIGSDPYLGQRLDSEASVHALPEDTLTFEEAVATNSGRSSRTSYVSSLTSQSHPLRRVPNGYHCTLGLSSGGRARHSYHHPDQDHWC

Turning to `Cc1c(-c2cnn(C)c2)c(C(=O)N(C)CC(C)(C)C)n(Cc2ccccc2)c1C(F)(F)F` [Example 04, 1-Benzyl-N,4-dimethyl-3-(1-methyl-1H-pyrazol-4-yl)-N-neopentyl-5-(trifluoromethyl)-1H-pyrrole-2-carboxamide], the inhibition at 3 µM is over 95%.
The figure for `Cc1c(-c2ncc(C(F)(F)F)cc2F)c(C(=O)N2CCOCC2)n(Cc2ccccc2)c1C(F)(F)F` [Example 24, [1-Benzyl-3-[3-fluoro-5-(trifluoromethyl)-pyridin-2-yl]-4-methyl-5-(trifluoromethyl)-1H-pyrrol-2-yl]-morpholin-4-yl-methanone] is over 95%.
The figure for `COc1cc(C)c(-c2c(C)c(C(F)(F)F)n(Cc3ccccc3)c2C(=O)N2CCOCC2)cn1` [Example 28, [1-Benzyl-3-(6-methoxy-4-methyl-pyridin-3-yl)-4-methyl-5-(trifluoromethyl)-1H-pyrrol-2-yl]-morpholin-4-yl-methanone] is 75 to 95%.
The figure for `COc1ncc(-c2c(C)c(C(F)(F)F)n(Cc3ccccc3)c2C(=O)N2CCOCC2)cn1` [Example 14, [1-Benzyl-3-(2-methoxy-pyrimidin-5-yl)-4-methyl-5-(trifluoromethyl)-1H-pyrrol-2-yl]-morpholin-4-yl-methanone] is 40 to 75%.
For `COc1cnc(-c2c(C)c(C(F)(F)F)n(Cc3ccccc3)c2C(=O)N2CCOCC2)cn1` [Example 05, (1-Benzyl-3-(5-methoxypyrazin-2-yl)-4-methyl-5-(trifluoromethyl)-1H-pyrrol-2-yl)(morpholino)methanone], the inhibition at 3 µM fell in the range of 40 to 75%.
The figure for `COc1cc(C)c(-c2c(C)c(C(F)(F)F)n(Cc3ccccc3)c2C(=O)N(C)CC(C)(C)C)cn1` [Example 21, 1-Benzyl-N-(2,2-dimethyl-propyl)-3-(6-methoxy-4-methyl-pyridin-3-yl)-N,4-dimethyl-5-(trifluoromethyl)-1H-pyrrole-2-carboxylic acid amide] is 75 to 95%.
Under `Cc1c(-c2ccc(Cl)nn2)c(C(=O)N2CCOCC2)n(Cc2ccccc2)c1C(F)(F)F` [Example 29, [1-Benzyl-3-(6-chloro-pyridazin-3-yl)-4-methyl-5-(trifluoromethyl)-1H-pyrrol-2-yl]-morpholin-4-yl-methanone] stands 40 to 75%; under `COc1cnc(-c2c(C)c(C(F)(F)F)n(Cc3ccccc3)c2C(=O)N(C)CC(C)(C)C)cn1` [Example 01, 1-benzyl-3-(5-methoxypyrazin-2-yl)-N,4-dimethyl-N-neopentyl-5-(trifluoromethyl)-1H-pyrrole-2-carboxamide], 75 to 95%.
Under `Cc1c(-c2cncnc2)c(C(=O)N2CCOCC2)n(Cc2ccccc2)c1C(F)(F)F` [Example 15, [1-Benzyl-4-methyl-3-pyrimidin-5-yl-5-(trifluoromethyl)-1H-pyrrol-2-yl]-morpholin-4-yl-methanone] stands 40 to 75%.
Take `Cc1c(-c2ncc(Cl)cn2)c(C(=O)NC(C)C)n(Cc2ccccc2)c1C(F)(F)F` [Example 52, 1-Benzyl-3-(5-chloro-pyrimidin-2-yl)-N-isopropyl-4-methyl-5-(trifluoromethyl)-1H-pyrrole-2-carboxylic acid amide]: the inhibition at 3 µM fell in the range of 40 to 75%.
The figure for `Cc1c(-c2cncnc2)c(C(=O)N(C)CC(C)(C)C)n(Cc2ccccc2)c1C(F)(F)F` [Example 11, 1-Benzyl-N-(2,2-dimethyl-propyl)-N,4-dimethyl-3-pyrimidin-5-yl-5-(trifluoromethyl)-1H-pyrrole-2-carboxylic acid amide] is 75 to 95%.
Under `Cc1c(-c2ncc(C(F)(F)F)cc2F)c(C(=O)N(C)CC(C)(C)C)n(Cc2ccccc2)c1C(F)(F)F` [Example 17, 1-Benzyl-N-(2,2-dimethyl-propyl)-3-[3-fluoro-5-(trifluoromethyl)-pyridin-2-yl]-N,4-dimethyl-5-(trifluoromethyl)-1H-pyrrole-2-carboxylic acid amide] stands 75 to 95%; under `Cc1c(-c2cnn(C)c2)c(C(=O)N2CCOCC2)n(Cc2ccccc2)c1C(F)(F)F` [Example 08, (1-Benzyl-4-methyl-3-(1-methyl-1H-pyrazol-4-yl)-5-(trifluoromethyl)-1H-pyrrol-2-yl)(morpholino)methanone], 40 to 75%.
Under `COc1cnc(-c2c(C)c(C(F)(F)F)n(Cc3ccccc3)c2C(=O)N(C)CC(C)(C)C)nc1` [Example 30, 1-Benzyl-3-(5-methoxypyrimidin-2-yl)-N,4-dimethyl-N-neopentyl-5-(trifluoromethyl)-1H-pyrrole-2-carboxamide] stands 75 to 95%; under `Cc1c(-c2ncc(F)cn2)c(C(=O)N2CCOCC2)n(Cc2ccccc2)c1C(F)(F)F` [Example 38, (1-Benzyl-3-(5-fluoropyrimidin-2-yl)-4-methyl-5-(trifluoromethyl)-1H-pyrrol-2-yl)(morpholino)methanone], 40 to 75%; under `Cc1c(-c2ncc(C3CC3)cn2)c(C(=O)N(C)C(C)C)n(Cc2ccccc2)c1C(F)(F)F` [Example 56, 1-Benzyl-3-(5-cyclopropyl-pyrimidin-2-yl)-N-isopropyl-N,4-dimethyl-5-(trifluoromethyl)-1H-pyrrole-2-carboxylic acid amide], over 95%.
Take `Cc1c(-c2ncc(F)cn2)c(C(=O)N(C)CC(C)(C)C)n(Cc2ccccc2)c1C(F)(F)F` [Example 33, 1-Benzyl-3-(5-fluoropyrimidin-2-yl)-N,4-dimethyl-N-neopentyl-5-(trifluoromethyl)-1H-pyrrole-2-carboxamide]: the inhibition at 3 µM is over 95%.
Regarding `COc1ccc(-c2c(C)c(C(F)(F)F)n(Cc3ccccc3)c2C(=O)N(C)CC(C)(C)C)cn1` [Example 02, 1-Benzyl-3-(6-methoxypyridin-3-yl)-N,4-dimethyl-N-neopentyl-5-(trifluoromethyl)-1H-pyrrole-2-carboxamide], the inhibition at 3 µM was in the range of 40 to 75%.
Under `Cc1c(-c2ccnnc2)c(C(=O)N2CCOCC2)n(Cc2ccccc2)c1C(F)(F)F` [Example 37, (1-Benzyl-4-methyl-3-(pyridazin-4-yl)-5-(trifluoromethyl)-1H-pyrrol-2-yl)(morpholino)methanone] stands 40 to 75%; under `Cc1c(-c2ccc(Cl)cn2)c(C(=O)N(C)CC(C)(C)C)n(Cc2ccccc2)c1C(F)(F)F` [Example 41, 1-Benzyl-3-(5-chloro-pyridin-2-yl)-N-(2,2-dimethyl-propyl)-N,4-dimethyl-5-(trifluoromethyl)-1H-pyrrole-2-carboxylic acid amide], over 95%; under `COc1ccc(-c2c(C)c(C(F)(F)F)n(Cc3ccccc3)c2C(=O)N2CCOCC2)cn1` [Example 06, (1-Benzyl-3-(6-methoxypyridin-3-yl)-4-methyl-5-(trifluoromethyl)-1H-pyrrol-2-yl)(morpholino)methanone], 75 to 95%.
As to `Cc1c(-c2ccc(Cl)nn2)c(C(=O)N(C)CC(C)(C)C)n(Cc2ccccc2)c1C(F)(F)F` [Example 22, 1-Benzyl-3-(6-chloro-pyridazin-3-yl)-N-(2,2-dimethyl-propyl)-N,4-dimethyl-5-(trifluoromethyl)-1H-pyrrole-2-carboxylic acid amide], the inhibition at 3 µM is over 95%.
Turning to `Cc1c(-c2ncc(Cl)cn2)c(C(=O)N(C)C(C)C)n(Cc2ccccc2)c1C(F)(F)F` [Example 54, 1-Benzyl-3-(5-chloro-pyrimidin-2-yl)-N-isopropyl-N,4-dimethyl-5-(trifluoromethyl)-1H-pyrrole-2-carboxylic acid amide], the inhibition at 3 µM is over 95%.
The figure for `Cc1c(-c2ncccn2)c(C(=O)N2CCOCC2)n(Cc2ccccc2)c1C(F)(F)F` [Example 40, (1-Benzyl-4-methyl-3-(pyrimidin-2-yl)-5-(trifluoromethyl)-1H-pyrrol-2-yl)(morpholino)methanone] is 40 to 75%.
